Entries after “also recorded” stand apart in the source; their conditions may differ.
Assays:
E. coli DH5α = assay: Inhibition zone test (agarose plate, Oxford cup); type: cell-based
Experimental: To measure AMP activity, the agarose plate method was employed. Microorganisms for inhibition testing were activated, 3–5 single colonies were picked and placed in liquid LB medium, cultured on a shaker at 37 °C for 6 h. Solid LB medium was melted by heating, 500 μL of liquid bacterial culture was added for every 100 mL of medium after cooling slightly, and the mixture was poured into a bacterial plate to solidify. Oxford cups were inserted into the solidified mixed bacterial plate, while being careful not to penetrate the medium completely, so as not to affect the penetration of the test liquid on the plate. Attention was paid to the spacing between the Oxford cups. Corresponding Oxford cups were marked and positive/negative controls (100 μL each) were added. Plates were incubated at 37 °C overnight to observe the antibacterial effects.
The E. coli DH5α mixed bacteria plate was prepared as described above. Two negative controls (HRV 3C Cleavage Buffer and 1 M NaCl) and a positive control (2 mg/mL ampicillin) were included.

E. coli = assay: MIC test (96-well plate, OD600); type: cell-based; conditions: for minimum concentration that inhibited an increase in the OD600 of the bacterial solution (MIC): 96-well plate, final 128 to 0.25 mg/L; for inhibition activity against testing microorganisms (MIC test): AMP expressed and purified in E. coli, up to 128 mg/L
Experimental: When measuring the minimum inhibitory concentration (MIC) of the expressed and purified AMPs, we performed the test according to the Clinical and Laboratory Standards Association. Specifically, microorganisms to be tested were activated, and five colonies were picked and separately cultured into liquid medium on a shaker (220 rpm) at 37 °C until the absorbance at 600 nm (OD600) reached 0.13–0.17; thus, corresponding to a biomass concentration of ~1 × 10^8 colony-forming units (CFU)/mL. Samples for testing were diluted to 4 mM, and two-fold serial dilutions were performed in a 96-well plate, with the concentration ranging from 100 to 0.195 μM. Each dilution (50 μL) was performed in duplicate. Next, 50 μL of microbial culture containing ~1 × 10^6 CFU/mL was added to each well. After incubating overnight at 37 °C, OD600 was measured using a microplate spectrophotometer.
Figure 8 The schematic diagram of a 96-well plate measuring MIC (data taken from three parallel experiments). Horizontal direction is AMP 1, 2, 6, 13, 16 test rows; Vertical direction 1–10 is the final concentration of 128 mg/L to 0.25 mg/L of these AMPs, respectively; 11 is the negative control; 12 is a positive control, the 20 mg/L ampicillin.
Figure 13B is a schematic diagram of the 96-well plate MIC experiment (data are from three parallel replicates). The horizontal direction is AMP13 from P. pastoris, the vertical direction is the final peptide concentration (128 mg/L to 0.25 mg/L), 11 is the negative control and 12 is the positive control (20 mg/L ampicillin).

[1] = AMP expressed in E. coli and purified, mixed bacteria LB agar plate, Oxford cup, 100 μL liquid per cup, 37 °C overnight
[2] = AMP expressed in E. coli, two-fold dilutions, overnight 37 °C, three parallel experiments

Row | Compound | Inhibition zone (E. coli DH5α; AMP13 produced by P. pastoris (PZEAP13), E. coli DH5α mixed bacteria plate, Oxford cup, 100 μL) | Inhibition zone (E. coli DH5α; [1]) | MIC (E. coli; AMP13 from P. pastoris, equated from 16 mg/L) | minimum concentration that inhibited an increase in the OD600 of the bacterial solution (MIC) (E. coli; AMP13 produced by P. pastoris (PZEAP13), three parallel replicates) | effective MIC (E. coli; AMP13 purified from P. pastoris, discussion) | minimum concentration that inhibited an increase in the OD600 of the bacterial solution (MIC) (E. coli; [2]) | inhibition activity against testing microorganisms (MIC test) (E. coli) | Inhibition zone (E. coli DH5α; positive control, 2 mg/mL ampicillin, E. coli DH5α mixed bacteria plate, test of P. pastoris AMP13) | Inhibition zone (E. coli DH5α; positive control, ampicillin 200 mg/L, 100 μL per Oxford cup, plates of E. coli-derived AMPs)
1 | GFCRCLCRRGVCRCICTR [AMP13, antimicrobial peptide selected from the AMP library website, expressed as CL7 fusion in E. coli and in P. pastoris, released by HRV 3C protease] | showed inhibition activity; also recorded: clear circle of inhibition | there was an inhibition zone | 8.1 µM | 16 µg/mL | 16 µg/mL | 32 µg/mL | – | – | –
2 | ILPWKWPWWPWRR [AMP2, antimicrobial peptide selected from the AMP library website, expressed as CL7 fusion in E. coli and released by HRV 3C protease] | – | no inhibition zones | – | – | – | > 128 µg/mL | no inhibition activity; also recorded: did not exhibit detectable antibacterial activity | – | –
3 | DSHAKRHHGYKRKFHEKHHSHRGY [AMP16, antimicrobial peptide selected from the AMP library website, expressed as CL7 fusion in E. coli and released by HRV 3C protease] | – | there was an inhibition zone | – | – | – | 64 µg/mL | – | – | –
4 | VFQFLGKIIHHVGNFVHGFSHVF [AMP6, antimicrobial peptide selected from the AMP library website, expressed as CL7 fusion in E. coli and released by HRV 3C protease] | – | no inhibition zones | – | – | – | > 128 µg/mL | no inhibition activity; also recorded: did not exhibit detectable antibacterial activity | – | –
5 | CC1(C)S[C@@H]2[C@H](NC(=O)[C@H](N)c3ccccc3)C(=O)N2[C@H]1C(=O)O [ampicillin, reference compound] | – | – | – | – | – | – | – | there was an inhibition zone | there was an inhibition zone
6 | ITPATPFTPAIITEITAAVIA [AMP1, antimicrobial peptide selected from the AMP library website, expressed as CL7 fusion in E. coli and released by HRV 3C protease] | – | no inhibition zones | – | – | – | 128 µg/mL | no inhibition activity; also recorded: did not exhibit detectable antibacterial activity | – | –

Source: PMC8469748, “A Method for Rapid Screening, Expression, and Purification of Antimicrobial Peptides” (Microorganisms, 2021)
